Measurements published in US20210212996A1, “METHODS OF TREATING NEURODEGENERATIVE DISEASES USING INDANE ACETIC ACID DERIVATIVES WHICH PENETRATE THE BLOOD BRAIN BARRIER” (DARA BioSciences, Inc., priority 2009, published 2021).
Like-named read-outs stand apart in the source and are kept apart here.

Experiments:
human PPARδ = target: T1, human PPARδ (Homo sapiens, UniProt Q03181); assay: Human PPAR activation in transient transfection study, transfected CV-1 cells (delta subtype); assay type: cell-based
T1 construct: expressed in transfected cells; host or cells: CV-1 cells (transient transfection)
T1 sequence (Q03181 1-441): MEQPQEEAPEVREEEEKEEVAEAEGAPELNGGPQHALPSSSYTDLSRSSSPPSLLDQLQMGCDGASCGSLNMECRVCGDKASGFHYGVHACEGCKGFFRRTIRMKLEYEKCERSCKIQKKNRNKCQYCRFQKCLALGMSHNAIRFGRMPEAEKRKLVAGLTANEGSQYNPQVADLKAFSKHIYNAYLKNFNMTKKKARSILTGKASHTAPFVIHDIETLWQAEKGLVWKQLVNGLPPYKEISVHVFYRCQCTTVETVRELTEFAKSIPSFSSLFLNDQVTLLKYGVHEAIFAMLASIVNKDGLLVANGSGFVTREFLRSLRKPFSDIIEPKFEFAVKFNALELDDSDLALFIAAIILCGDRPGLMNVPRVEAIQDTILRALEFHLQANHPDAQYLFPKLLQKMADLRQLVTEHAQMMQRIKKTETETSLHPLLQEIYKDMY

human PPARα = target: T2, human PPARα (Homo sapiens, UniProt Q07869); assay: Human PPAR activation in transient transfection study, transfected CV-1 cells (alpha subtype); assay type: cell-based
T2 construct: expressed in transfected cells; host or cells: CV-1 cells (transient transfection)
T2 sequence (Q07869 1-468): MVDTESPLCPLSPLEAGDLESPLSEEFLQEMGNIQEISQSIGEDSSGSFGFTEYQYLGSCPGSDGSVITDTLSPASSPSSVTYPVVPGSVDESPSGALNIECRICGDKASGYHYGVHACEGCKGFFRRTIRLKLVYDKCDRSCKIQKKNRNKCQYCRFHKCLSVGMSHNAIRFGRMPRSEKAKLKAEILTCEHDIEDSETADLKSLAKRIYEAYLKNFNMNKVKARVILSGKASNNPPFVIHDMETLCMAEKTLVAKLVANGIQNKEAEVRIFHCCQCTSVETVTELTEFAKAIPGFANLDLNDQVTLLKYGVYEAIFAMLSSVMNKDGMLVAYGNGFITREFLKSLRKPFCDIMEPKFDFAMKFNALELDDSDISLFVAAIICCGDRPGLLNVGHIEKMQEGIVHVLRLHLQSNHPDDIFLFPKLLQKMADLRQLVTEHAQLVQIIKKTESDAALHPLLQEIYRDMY
Source text: (§1) The table summarize the results of studies performed in transfected CV-1 cells with three different lots of Compound of Example 11. […].

[1] = Rat brain penetrance pharmacokinetics, brain to plasma ratio after oral dosing; assay type: in vivo, male Sprague-Dawley rats; conditions: for concentration at 7 h: time point 7.0, individual rats
Source text: Blood brain penetration studies can be carried out as described in recent publications and as is known by those skilled in the art. (See: Chang, K. L., et al. Influence of drug transporters and stereoselectivity on the brain penetration of pioglitazone as a potential medicine against Alzheimer's disease. Science Reports 2014, 5, 9000). In brief, A good measure of whether a small molecule penetrates the BBB and is not rapidly transported out, is the brain to plasma ratio of the drug. This is measured in pre-clinical animal models by determining plasma concentration vs time curves as in a standard pharmacokinetic study, and in addition harvesting brains and determining whole brain concentrations over time. The brain to plasma concentration ratio can them be determined at any time point, such as the […], or for the entire time curve (AUC, area under the curve). Clinically, FDG-PET can be used as a measure of the pharmacological effect of T3D-959, and an indirect measure of brain levels of drug.
For compounds of the present invention to be effective in treating neurotoxicity or neurodegeneration, it must have an ability to cross the BBB and penetrate the brain. […] The plasma exposure as measured by AUClast was 9569±1190 hr*ng/mL.

[2] = tested on: Relative Cerebral Metabolic Rate for glucose; assay: FDG-PET clinical study, two week treatment; assay type: in vivo, human
Source text: The majority were non-Hispanic and of white origin.

human Caco-2 = assay: Caco-2 permeability with and without P-gp inhibitor verapamil; conditions: Caco-2 with/without verapamil
[3] = as above; conditions: human, Caco-2
human PPARγ = target: T3, human PPARγ (Homo sapiens, UniProt P37231); assay: Human PPAR activation in transient transfection study, transfected CV-1 cells (gamma subtype); assay type: cell-based
T3 construct: expressed in transfected cells; host or cells: CV-1 cells (transient transfection)
T3 sequence (P37231 1-505): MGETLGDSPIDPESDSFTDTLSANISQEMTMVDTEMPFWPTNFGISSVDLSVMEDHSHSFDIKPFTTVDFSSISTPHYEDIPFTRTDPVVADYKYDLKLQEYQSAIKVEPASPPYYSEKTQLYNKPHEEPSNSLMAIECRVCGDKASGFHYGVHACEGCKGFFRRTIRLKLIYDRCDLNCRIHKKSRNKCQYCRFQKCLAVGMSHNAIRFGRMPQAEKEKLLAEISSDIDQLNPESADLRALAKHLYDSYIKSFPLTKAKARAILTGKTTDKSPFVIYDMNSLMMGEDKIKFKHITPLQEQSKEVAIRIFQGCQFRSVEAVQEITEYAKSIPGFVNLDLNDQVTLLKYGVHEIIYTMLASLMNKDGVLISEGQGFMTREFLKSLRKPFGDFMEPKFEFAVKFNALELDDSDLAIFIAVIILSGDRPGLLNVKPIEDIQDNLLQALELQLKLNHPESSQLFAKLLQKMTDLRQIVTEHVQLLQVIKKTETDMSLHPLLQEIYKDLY
Source text: as §1

**Q.** Which EC50 (human PPARδ; Lot A, Non GMP, read-out: EC50 PPARδ) does the source give for `CCc1oc(-c2ccc(OC)cc2)nc1CCOc1ccc2c(c1)CC[C@H]2CC(=O)[O-].[Na+]` [Example 11, Sodium (S)-2-(5-(2-(5-ethyl-2-(4-methoxyphenyl)oxazol-4-yl)ethoxy)-2,3-dihydro-1H-inden-1-yl)acetate] here?
**A.** 15 nM

**Q.** What about the EC50 (human PPARδ; Lot B, GLP Nonclinical Studies, read-out: EC50 PPARδ) of the same molecule?
**A.** 27 nM

**Q.** And the EC50 (human PPARδ; Lot C, cGMP material, read-out: EC50 PPARδ)?
**A.** 16 nM

**Q.** What about the EC50 (human PPARδ; average of three lots, read-out: Average EC50 PPARδ) of the same molecule?
**A.** 19 nM

**Q.** What about the EC50 (human PPARα; Lot A, Non GMP, read-out: EC50 PPARα) of the same molecule?
**A.** 488 nM

**Q.** What about the EC50 (human PPARα; Lot B, GLP Nonclinical Studies, read-out: EC50 PPARα) of the same molecule?
**A.** 750 nM

**Q.** What about the EC50 (human PPARα; Lot C, cGMP material, read-out: EC50 PPARα) of the same molecule?
**A.** 360 nM

**Q.** And the “selectivity over the human PPAR alpha subtype” value (human PPARα; PPARδ vs PPARα)?
**A.** ~30 fold

**Q.** What about the EC50 (human PPARα; average of three lots, read-out: Average EC50 PPARα) of the same molecule?
**A.** 530 nM

**Q.** And the “time plasma Cmax reached post dose” value ([1]; 3 mg/kg oral)?
**A.** 5 h

**Q.** What about the concentration at 7 h ([1]; male, Sprague-Dawley, rat, brain, oral, 3 mg/kg, read-out: Brain Tissue Cone.) of the same molecule?
**A.** 130 ng/g

**Q.** What about the Kp at 3 h ([1]; male, Sprague-Dawley, rat, in vivo, 3 mg/kg, time point 3.0, individual rats, read-out: B/P Ratio) of the same molecule?
**A.** 0.19

**Q.** What about the concentration at 3 h ([1]; male, Sprague-Dawley, rat, in vivo, 3 mg/kg, time point 3.0, individual rats, read-out: Brain Tissue Cone.) of the same molecule?
**A.** 274 ng/g

**Q.** What about the concentration at 3 h ([1]; male, Sprague-Dawley, rat, in vivo, 3 mg/kg, time point 3.0, individual rats, read-out: Plasma Conc.) of the same molecule?
**A.** 1430 ng/mL

**Q.** What about the Kp at 5 h ([1]; male, Sprague-Dawley, rat, in vivo, 3 mg/kg, time point 5.0, individual rats, read-out: B/P Ratio) of the same molecule?
**A.** 0.17

**Q.** And the concentration at 5 h ([1]; male, Sprague-Dawley, rat, in vivo, 3 mg/kg, time point 5.0, individual rats, read-out: Brain Tissue Cone.)?
**A.** 208 ng/g

**Q.** And the concentration at 5 h ([1]; male, Sprague-Dawley, rat, in vivo, 3 mg/kg, time point 5.0, individual rats, read-out: Plasma Conc.)?
**A.** 1260 ng/mL

**Q.** What about the concentration at 7 h ([1]; male, Sprague-Dawley, rat, in vivo, 3 mg/kg, read-out: Brain Tissue Cone.) of the same molecule?
**A.** 203 ng/g

**Q.** And the Kp at 12 h ([1]; male, Sprague-Dawley, rat, in vivo, 3 mg/kg, time point 12.0, individual rats, read-out: B/P Ratio)?
**A.** 0.3

**Q.** What about the concentration at 12 h ([1]; male, Sprague-Dawley, rat, in vivo, 3 mg/kg, time point 12.0, individual rats, read-out: Brain Tissue Cone.) of the same molecule?
**A.** 104 ng/g

**Q.** What about the concentration at 12 h ([1]; male, Sprague-Dawley, rat, in vivo, 3 mg/kg, time point 12.0, individual rats, read-out: Plasma Conc.) of the same molecule?
**A.** 345 ng/mL

**Q.** And the Kp at 1 h ([1]; male, Sprague-Dawley, rat, in vivo, po, 3 mg/kg, 1 hour, 3 mg/kg oral)?
**A.** 0.361 ± 0.142

**Q.** And the Kp at 3 h ([1]; male, Sprague-Dawley, rat, in vivo, po, 3 mg/kg, 3 hours, 3 mg/kg oral, read-out: Brain/Plasma ratio)?
**A.** 0.22 ± 0.033

**Q.** What about the Kp at 5 h ([1]; male, Sprague-Dawley, rat, in vivo, po, 3 mg/kg, 5 hours, 3 mg/kg oral, read-out: Brain/Plasma ratio) of the same molecule?
**A.** 0.171 ± 0.011

**Q.** And the Kp at 7 h ([1]; male, Sprague-Dawley, rat, in vivo, po, 3 mg/kg, 7 hours, 3 mg/kg oral)?
**A.** 0.328 ± 0.154

**Q.** What about the Kp at 12 h ([1]; male, Sprague-Dawley, rat, in vivo, po, 3 mg/kg, 12 hours, 3 mg/kg oral, read-out: Brain/Plasma ratio) of the same molecule?
**A.** 0.35 ± 0.077

**Q.** And the half-life ([1]; male, Sprague-Dawley, rat, in vivo, 3 mg/kg oral)?
**A.** 3.33 h

**Q.** And the Cmax ([1]; male, Sprague-Dawley, rat, in vivo, 3 mg/kg oral, normal saline)?
**A.** 1550 ± 248 ng/mL

**Q.** What about the AUC(0-t) ([1]; male, Sprague-Dawley, rat, in vivo, 3 mg/kg oral, read-out: plasma exposure AUClast) of the same molecule?
**A.** 9570 ± 1190 ng·h/mL

**Q.** And the concentration at 3 h ([1]; male, Sprague-Dawley, rat, plasma, oral, 3 mg/kg, time point 3.0, individual rats, read-out: Plasma Conc.)?
**A.** 910 ng/mL

**Q.** What about the “number of voxels with statistically significant differences from baseline to end of treatment (ROSDs)” value ([2]; 10 mg) of the same molecule?
**A.** 70 voxels

**Q.** What about the “penetration of the Blood Brain Barrier (FDG-PET, voxel-wise analysis)” value ([2]; clinical, 3 to 90 mg) of the same molecule?
**A.** penetrates the Blood Brain Barrier (BBB) even at the lowest 3 mg

**Q.** And the “dose dependence of the effect on FDG-PET outcomes” value ([2]; sROI, anatomical ROI and voxel-wise SPM analyses)?
**A.** dose-dependent, with larger effects observed at larger doses

**Q.** And the P-gp substrate (human Caco-2)?
**A.** not a substrate for P-gp

**Q.** What about the Papp [3] of the same molecule?
**A.** 114 ×10⁻⁶ cm/s

**Q.** And the EC50 (human PPARγ; Lot A, Non GMP, read-out: EC50 PPARγ)?
**A.** 220 nM

**Q.** And the EC50 (human PPARγ; Lot B, GLP Nonclinical Studies, read-out: EC50 PPARγ)?
**A.** 270 nM

**Q.** What about the EC50 (human PPARγ; Lot C, cGMP material, read-out: EC50 PPARγ) of the same molecule?
**A.** 400 nM

**Q.** And the EC50 (human PPARγ; average of three lots, read-out: Average EC50 PPARγ)?
**A.** 297 nM
